The record followed here is ChEMBL document CHEMBL5725365, “Tyrosine kinase inhibitors” (2017).

For this experiment, the target named is Tyrosine-protein kinase BTK (Homo sapiens, UniProt Q06187). Put plainly: Enzymatic Activity Assay: A Caliper-based kinase assay (Caliper Life Sciences, Hopkinton, Mass.) was used to measure inhibition of BTK kinase activity of a compound of the present disclosure. Serial dilutions of test compounds were incubated with human recombinant BTK (0.5 nM), ATP (16 μM) and a phosphoacceptor peptide substrate FAM-[…]-NH2(1 μM) at room temperature for 3 h. The reaction was then terminated with EDTA, final concentration 20 mM and the phosphorylated reaction product was quantified on a Caliper Desktop Profiler (Caliper LabChip 3000).
Sequence of Tyrosine-protein kinase BTK (Q06187 whole entry): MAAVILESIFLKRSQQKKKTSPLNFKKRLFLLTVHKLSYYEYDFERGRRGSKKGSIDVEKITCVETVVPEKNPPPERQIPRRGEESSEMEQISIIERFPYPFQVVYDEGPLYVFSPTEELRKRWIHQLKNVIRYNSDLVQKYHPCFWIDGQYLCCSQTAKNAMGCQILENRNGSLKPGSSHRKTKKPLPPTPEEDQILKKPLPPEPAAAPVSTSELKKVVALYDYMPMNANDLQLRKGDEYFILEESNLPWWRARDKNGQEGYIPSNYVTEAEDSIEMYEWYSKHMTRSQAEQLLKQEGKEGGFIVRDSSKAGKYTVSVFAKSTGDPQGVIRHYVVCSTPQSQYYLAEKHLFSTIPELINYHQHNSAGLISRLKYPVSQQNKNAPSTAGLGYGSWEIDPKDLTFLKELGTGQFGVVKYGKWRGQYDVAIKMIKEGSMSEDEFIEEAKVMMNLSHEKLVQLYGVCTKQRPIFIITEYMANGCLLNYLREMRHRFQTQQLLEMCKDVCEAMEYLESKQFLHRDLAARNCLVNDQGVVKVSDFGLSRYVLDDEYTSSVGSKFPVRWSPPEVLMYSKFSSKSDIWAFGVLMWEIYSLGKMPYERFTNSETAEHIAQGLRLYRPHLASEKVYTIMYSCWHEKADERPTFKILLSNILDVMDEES

In general, IC50 refers to the midpoint of a concentration-inhibition curve. As to `CC(C)(C=C(C#N)C(=O)N1CCC[C@@H](n2c(=O)n(-c3ccc(Oc4ccccc4)cc3)c3c(N)nccc32)C1)C(=O)N1CCN(C2COC2)CC1`, the 50% inhibitory concentration (IC50) was found to be 24 nM.
